Marks after values point to notes of the source that are not given here.
Key:
[1] = system: fibrin fiber network of healthy platelet rich plasma (PRP); settings: PRP exposed to compound, then thrombin; SEM
Procedure: SEM-Based Analyses. […] Blood was obtained from three healthy, female subjects after written, informed consent was obtained. […] Their plasma ferritin (range 2.6-3.3 g/L), serum ferritin (range 13-28 ng/ml) and iron saturation of ferritin (range 19-33%) were normal. As noted previously, forty ml of whole blood was obtained, anticoagulated (sodium citrate, 9 parts blood to 1 part 0.105M sodium citrate), and platelet rich plasma (PRP) was generated by centrifugation of blood at 1250×g for 2 min (Nielsen et al., Blood Coagul Fibrinolysis 25:695-702 (2014); Nielsen et al., Blood Coagul Fibrinolysis 25:845-50 (2014)). […]
The cover slips were placed in 0.075 M PBS on a shaker and washed for 20 minutes. […] Once the samples had been coated they were analyzed with a scanning electron microscope (Zeiss ULTRA plus FEG SEM, Carl Zeiss Microscopy GmbH, Jena, Germany).
After visualization of the fibrin networks with SEM, micrographs were obtained at 40,000 times machine magnification. […] One fiber was randomly selected out of every block of the grid, ensuring that fiber measurements were not duplicated, and that fibers were systematically assessed to prevent observer bias (Pretorius Ultrastruct Pathol 35(4):150-154 (2001); Pretorius et al., Blood Coagul Fibrinolysis 22(8):696-700 (2011)). […] From each sample, 50 fibers were measured.

normal individual plasma = test: Coagulation kinetic analyses and COHF assay (TTG increase after CORM-2); assay type: biochemical, human; settings: CORM-2 100 μM; based on individual, not group mean responses
Procedure: Plasma was rapidly thawed at 37° C. on the day of experimentation. The final volume for all subsequently described plasma sample mixtures was 359.4 μl. […] Plasma sample mixtures were placed in a disposable cup in a computer-controlled thrombelastograph® hemostasis system (Model 5000, Haemoscope Corp., Niles, Ill., USA), with addition of CaCl2 as the last step to initiate clotting. Data were collected at 37° C. for 15 min. The following elastic modulus-based parameters previously described (Benk et al., Eur J Cardio-Thorac Surg 44:551-558 (2013); Owens Clin Biochem 43:1183-1188 (2010); Balla et al., Antioxid Redox Signal 9:2119-2137 (2007); Nielsen et al., Blood Coagul Fibrinolysis 20:377-380 (2009); Nielsen et al., Blood Coagul Fibrinolysis 22:443-447 (2011); Nielsen et al., Blood Coagul Fibrinolysis 22:756-759 (2011); Nielsen et al., Blood Coagul Fibrinolysis 24:405-410 (2013)) were determined: time to maximum rate of thrombus generation (TMRTG): this is the time interval (min) observed prior to maximum speed of clot growth; maximum rate of thrombus generation (MRTG): this is the maximum velocity of clot growth observed (dynes/cm^2/sec); and total thrombus generation (TTG, dynes/cm^2), the final viscoelastic resistance observed after clot formation. […]

normal pooled plasma [2] = test: Concentration-response of FeCl3 on reaction time (R), ROTEM delta thromboelastometry; assay type: biochemical, human; settings: 2-10 μM FeCl3
Procedure: First, a concentration-response relationship of iron concentration and reaction time (R, defined as 2 mm clot strength; this is also known as clotting time in thromboelastometric analyses) was determined. The rationale for using R time was that it is the first indication of the onset of coagulation, is used in both thrombelastographic and thromboelastometric systems, and was anticipated to quickly and easily detect iron-mediated enhancement of coagulation based on previous work. This concentration-response relationship was generated with a ROTEM® delta hemostasis system (Tem Innovations GmbH, Munich, Germany) generously provided by the manufacturer. All disposable cups/pins and reagents were also provided by Tem Innovations. Plasma was rapidly thawed at 37° C. on the day of experimentation. […] After 3 min or more of incubation at room temperature, 320 μl of these iron-exposed plasmas were subsequently placed in a disposable cup, with subsequent addition of 20 μl of 200 mM CaCl2. The complete sample was mixed by pipette once, and the reaction commenced at 37° C. The R values were subsequently recorded.

normal pooled plasma [3] = test: Effect of FeCl3 and deferoxamine chelation on reaction time (R), thrombelastograph; assay type: biochemical, human; settings: FeCl3 10 μM; for reaction time: median (1st, 3rd quartile)
Procedure: Thrombelastograph-Based Analyses. All thrombelastograph-based experiments were performed at the University of Arizona. Frozen, citrate anticoagulated normal pooled plasma was obtained from a commercial vendor (George King Bio-Medical, Overland Park, Kans., USA) for use in subsequently described experimentation. […] Deferoxamine was obtained from a commercial vendor (Cayman Chemical Company, Ann Arbor, Mich., USA). […] Then, 336 μl of either plasma mixture was placed in a disposable cup in a computer-controlled thrombelastograph® hemostasis system (Model 5000, Haemoscope Corp., Niles, Ill., USA). […] Thus, there were four conditions: no deferoxamine, no FeCl3, (Control), deferoxamine, no FeCl3 (deferoxamine); no deferoxamine, FeCl3 (FeCl3); and finally, FeCl3 followed by deferoxamine (FeCl3+Deferoxamine). There were six replicates per condition. Thereafter, 20 μl of 200 mM CaCl2 was added as the last step to initiate clotting. Data were collected at 37° C. until R was recorded. […] There were six replicates per condition. An aliquot of 340 μl of each of the four conditions was placed into thrombelastographic cups and 20 μl of 200 mM CaCl2 was added to initiate clotting. Data were collected at 37° C. until R was recorded. As R values varied between experiments, and a fixed number of channels were available (n=4), plasma was incubated at room temperature between 45-60 min prior to initiation of coagulation. The third series of experiments was designed to decrease incubation time by increasing temperature and deferoxamine concentration without compromising the ability to detect iron-mediated changes in R values. […] The mixtures were mixed with the disposable pin, and allowed to incubate for 15 min at 37° C. Clotting was initiated by addition of 20 μl of 200 mM CaCl2 and data collected at 37° C. until R was recorded. A total of six replicates of the four experimental conditions were analyzed.

Row | SMILES | decrease in average fibrin fiber width vs normal subjects (105±3 nm) [1] | normal individual increase in TTG secondary to CORM-2 exposure (normal individual plasma) | R values vs plasma without FeCl3 addition (normal pooled plasma [2]) | FeCl3-mediated decrease in R values (normal pooled plasma [3]; 45-60 minute incubation) | reduction in R values compared to control plasma values (normal pooled plasma [3]; 3 min incubation series) | reaction time (normal pooled plasma [3]; Fifteen min incubation at 37° C., deferoxamine 2.78 mM) | reaction time (normal pooled plasma [3]; Forty-five to sixty min incubation at room temperature, deferoxamine 1 mM) | reaction time (normal pooled plasma [3]; Three min incubation at room temperature, deferoxamine 1 mM)
1 | [C-]#[O+].[C-]#[O+].[C-]#[O+].[C-]#[O+].[C-]#[O+].[C-]#[O+].[Cl][Ru][Cl].[Cl][Ru][Cl] [CORM-2, tricarbonyldichlororuthenium (II) dimer] | 43% | 89% |  |  |  |  |  | 
2 | [Cl][Fe]([Cl])[Cl] [FeCl3, ferric chloride] | 58% |  | significantly smaller | 72% | 54% | 4.6 (4.4, 6.0)*† min | 5.0 (4.9, 5.1)*† min | 5.9 (5.8, 6.4)*† min

Reference: patent US10012659B2, “Methods for diagnosing iron-related pathologies” (priority 2014, dated 2018)
